Key:
[1] = test system: Arabidopsis T1 plants transformed with 24DT02 nucleotide sequence; assay: Herbicide resistance effect test of transgenic Arabidopsis T1 plants (24DT02); assay type: in vivo, Arabidopsis thaliana; details: number of T1 plants, genotype 24DT02; for Highly resistant: 560 g ae/ha (1-fold field concentration) sprayed, growth consistent with blank solvent 7 days after spraying; for Moderately resistant / Non-resistant / Lowly resistant: 560 g ae/ha sprayed; for Moderately resistant: curly rosette leaves 7 days after spraying; for Non-resistant: dead 14 days after spraying; for Lowly resistant: incapable of bolting 14 days after spraying
Protocol: (§1) On 7 days after planting (DAP) and 11 DAP respectively, the T1 plants (cotyledon stage and 2-4 leaves stage, respectively) were sprayed with 0.2% of Liberty herbicide solution (200 g ai/L glufosinate-ammonium) using DeVilbiss compressed air nozzle at a spraying volume of 10 ml/disc (703 L/ha) so as to provide effective amount of glufosinate-ammonium (280 g ai/ha) for each application. The survival plants (actively growing plants) were verified 4 to 7 days after the last spraying and transferred into the square pot (7 cm×7 cm) made from vermiculite and horses dung (3-5 plants per pot). The transplanted plants were covered with moisturizing mask for 3-4 days and placed in culture room at 22° C. or directly into the greenhouse as described above. Then the mask was removed and the plants were planted in greenhouse (22±5° C., 50±30% RH, 14 hours of lighting: 10 hours of darkness, minimum […] natural light+complement light) at least one day before testing the ability of 24DT02 to provide the resistance to phenoxy auxin herbicide.
(§2) 24DT02 gene was used to transform Arabidopsis for the first time. At first, T1 transformants were selected from the background of un-transformed seeds, using glufosinate-ammonium selection scheme. About 40000 T1 seeds were screened among which 195 strains of T1 generation positive transformants (PAT gene) were identified, i.e. the transformation efficiency was about 0.5%. Herbicide resistance effect tests to 2,4-D dimethyl ammonium salt and agroxone of Arabidopsis T1 plants transformed with 24DT02 nucleotide sequence, substituted 24DT02 nucleotide sequence, truncated 24DT02 nucleotide sequence, added 24DT02 nucleotide sequence, control nucleotide sequence respectively and wild-type Arabidopsis plants were performed after 18 days of planting.
(§3) Arabidopsis T1 plants transformed with 24DT02 nucleotide sequence, substituted 24DT02 nucleotide sequence, truncated 24DT02 nucleotide sequence, added 24DT02 nucleotide sequence and control nucleotide sequence respectively and wild-type Arabidopsis plants were sprayed with 2,4-D dimethyl ammonium salt (560 g ae/ha, 1-fold concentration in field), agroxone (560 g ae/ha, 1-fold concentration in field) and blank solvent (water). Resistance conditions of the plants were counted 7 days and 14 days after spraying. Plants with growth conditions consistent with blank solvent (water) 7 days after spaying were classified as highly resistant plants; Plants with curly rosette leaves 7 days after spaying were classified as moderately resistant plants; Plants incapable of bolting 14 days after spaying were classified as low-resistant plants and the dead plants 14 days after spaying were classified as non-resistant plants. Because each Arabidopsis T1 plant was an independent transformation event, significant differences of individual T1 responses were expected under a given dose.

[2] = test system: Arabidopsis T1 plants transformed with truncated 24DT02 nucleotide sequence; assay: Herbicide resistance effect test of transgenic Arabidopsis T1 plants (24DT02-t); assay type: in vivo, Arabidopsis thaliana; details: number of T1 plants, genotype 24DT02-t, 560 g ae/ha sprayed; for Moderately resistant: curly rosette leaves 7 days after spraying; for Non-resistant: dead 14 days after spraying; for Highly resistant: growth consistent with blank solvent 7 days after spraying; for Lowly resistant: incapable of bolting 14 days after spraying
Protocol: as §1, §2, §3

[3] = test system: wild-type Arabidopsis plants; assay: Herbicide resistance effect test of wild-type Arabidopsis plants; assay type: in vivo, Arabidopsis thaliana; details: number of plants, genotype Wild, 560 g ae/ha sprayed; for Moderately resistant: curly rosette leaves 7 days after spraying; for Non-resistant: dead 14 days after spraying; for Highly resistant: growth consistent with blank solvent 7 days after spraying; for Lowly resistant: incapable of bolting 14 days after spraying
Excerpt: 24DT02 gene was used to transform Arabidopsis for the first time. At first, T1 transformants were selected from the background of un-transformed seeds, using glufosinate-ammonium selection scheme. About 40000 T1 seeds were screened among which 195 strains of T1 generation positive transformants (PAT gene) were identified, i.e. the transformation efficiency was about 0.5%. Herbicide resistance effect tests to 2,4-D dimethyl ammonium salt and agroxone of Arabidopsis T1 plants transformed with 24DT02 nucleotide sequence, substituted 24DT02 nucleotide sequence, truncated 24DT02 nucleotide sequence, added 24DT02 nucleotide sequence, control nucleotide sequence respectively and wild-type Arabidopsis plants were performed after 18 days of planting. Arabidopsis T1 plants transformed with 24DT02 nucleotide sequence, substituted 24DT02 nucleotide sequence, truncated 24DT02 nucleotide sequence, added 24DT02 nucleotide sequence and control nucleotide sequence respectively and wild-type Arabidopsis plants were sprayed with 2,4-D dimethyl ammonium salt (560 g ae/ha, 1-fold concentration in field), agroxone (560 g ae/ha, 1-fold concentration in field) and blank solvent (water). Resistance conditions of the plants were counted 7 days and 14 days after spraying. Plants with growth conditions consistent with blank solvent (water) 7 days after spaying were classified as highly resistant plants; Plants with curly rosette leaves 7 days after spaying were classified as moderately resistant plants; Plants incapable of bolting 14 days after spaying were classified as low-resistant plants and the dead plants 14 days after spaying were classified as non-resistant plants. Because each Arabidopsis T1 plant was an independent transformation event, significant differences of individual T1 responses were expected under a given dose.

[4] = test system: wild type maize plants; assay: Herbicide-resistance effect test of wild type (CK) corn; assay type: in vivo; details: 8960 g ae/ha sprayed, 21 days after spraying; for Abnormal development of prop roots / Normal development of prop roots: number of plants
Protocol: Herbicide resistance effects tests to 2,4-D dimethyl ammonium salt and agroxone of maize plants containing 24DT02 nucleotide sequence, 24DT02 substituted nucleotide sequence, 24DT02 truncated nucleotide sequence, 24DT02 added nucleotide sequence, control nucleotide sequence respectively and wild type maize plants (stages V3-V4) were performed respectively.
Maize plants containing 24DT02 nucleotide sequence, 24DT02 substituted nucleotide sequence, 24DT02 truncated nucleotide sequence, 24DT02 added nucleotide sequence, control nucleotide sequence respectively and wild type maize plants were taken and spayed with 2,4-D dimethyl ammonium salt (8960 g ae/ha, 16-folds concentration in field), agroxone (8960 g ae/ha, 16-folds concentration in field) and blank solvent (water) respectively. Prop root development was counted 21 days after spaying. Three strains (S1, S2, and S3) of corn plants transfected with 24DT02 nucleotide sequence, two strains (S4 and S5) of corn plants transfected with 24DT02 substituted nucleotide sequence, two strains (S6 and S7) of corn plants transfected with 24DT02 truncated nucleotide sequence, two strains (S8 and S9) of corn plants transfected with 24DT02 added nucleotide sequence, two strains (S10 and S11) of corn plants transfected with control nucleotide sequence and 1 strain of wild type (CK) corn were selected and 10-15 plants from each stain were tested.

[5] = test system: Arabidopsis; assay: Effective dose distinguishing sensitive from resistant Arabidopsis; assay type: in vivo

| Structure (SMILES) | Highly resistant [1] | Moderately resistant [1] | Non-resistant [1] | Lowly resistant [1] | Moderately resistant [2] | Non-resistant [2] | Highly resistant [2] | Lowly resistant [2] | Moderately resistant [3] | Non-resistant [3] | Highly resistant [3] | Lowly resistant [3] | Ratio of the normally developed prop roots [4] [%] | Abnormal development of prop roots [4] | Normal development of prop roots [4] | effective dose to distinguish the sensitive plants from plants with average resistance [5] [g ae/ha] |
| --- | --- | --- | --- | --- | --- | --- | --- | --- | --- | --- | --- | --- | --- | --- | --- | --- |
| CNC.O=C(O)COc1ccc(Cl)cc1Cl [2,4-D dimethyl ammonium salt] | 9 | 4 | 5 | 0 | 5 | 4 | 7 | 0 | 0 | 20 | 0 | 0 | 0 | 16 | 0 | – |
| Cc1cc(Cl)ccc1OCC(=O)O [agroxone] | 8 | 6 | 4 | 2 | 4 | 4 | 8 | 2 | 0 | 16 | 0 | 0 | 0 | 16 | 0 | 50 |

Reference: US9462805B2, “Herbicide-resistant proteins, encoding genes, and uses thereof” (Beijing Dabeinong Technology Group Co., Ltd., priority 2012, dated 2016)
